Assay results as given in ChEMBL document CHEMBL4251634, “Synthesis and antimicrobial activity of pyrimidinyl 1,3,4-oxadiazoles, 1,3,4-thiadiazoles and 1,2,4-triazoles” (2018).

Tests used:
Format in all cases: functional
[1] = tested on: Staphylococcus aureus; test: Antibacterial activity against Staphylococcus aureus assessed as diameter of inhibition zone at 12.5 ug/well after 24 hrs by agar well diffusion method; details: read-out: DIZ
[2] = tested on: Staphylococcus aureus; test: Antibacterial activity against Staphylococcus aureus assessed as diameter of inhibition zone at 25 ug/well after 24 hrs by agar well diffusion method; details: read-out: DIZ
[3] = tested on: Staphylococcus aureus; test: Antibacterial activity against Staphylococcus aureus assessed as diameter of inhibition zone at 50 ug/well after 24 hrs by agar well diffusion method; details: read-out: DIZ
[4] = tested on: Staphylococcus aureus; test: Antibacterial activity against Staphylococcus aureus assessed as diameter of inhibition zone at 100 ug/well after 24 hrs by agar well diffusion method; details: read-out: DIZ
[5] = tested on: Bacillus subtilis; test: Antibacterial activity against Bacillus subtilis assessed as diameter of inhibition zone at 12.5 ug/well after 24 hrs by agar well diffusion method; details: read-out: DIZ
[6] = tested on: Bacillus subtilis; test: Antibacterial activity against Bacillus subtilis assessed as diameter of inhibition zone at 25 ug/well after 24 hrs by agar well diffusion method; details: read-out: DIZ
[7] = tested on: Bacillus subtilis; test: Antibacterial activity against Bacillus subtilis assessed as diameter of inhibition zone at 50 ug/well after 24 hrs by agar well diffusion method; details: read-out: DIZ
[8] = tested on: Bacillus subtilis; test: Antibacterial activity against Bacillus subtilis assessed as diameter of inhibition zone at 100 ug/well after 24 hrs by agar well diffusion method; details: read-out: DIZ
[9] = tested on: Pseudomonas aeruginosa; test: Antibacterial activity against Pseudomonas aeruginosa assessed as diameter of inhibition zone at 12.5 ug/well after 24 hrs by agar well diffusion method; details: read-out: DIZ
[10] = tested on: Pseudomonas aeruginosa; test: Antibacterial activity against Pseudomonas aeruginosa assessed as diameter of inhibition zone at 25 ug/well after 24 hrs by agar well diffusion method; details: read-out: DIZ
[11] = tested on: Pseudomonas aeruginosa; test: Antibacterial activity against Pseudomonas aeruginosa assessed as diameter of inhibition zone at 50 ug/well after 24 hrs by agar well diffusion method; details: read-out: DIZ
[12] = tested on: Pseudomonas aeruginosa; test: Antibacterial activity against Pseudomonas aeruginosa assessed as diameter of inhibition zone at 100 ug/well after 24 hrs by agar well diffusion method; details: read-out: DIZ
[13] = tested on: Klebsiella pneumoniae; test: Antibacterial activity against Klebsiella pneumoniae assessed as diameter of inhibition zone at 12.5 ug/well after 24 hrs by agar well diffusion method; details: read-out: DIZ
[14] = tested on: Klebsiella pneumoniae; test: Antibacterial activity against Klebsiella pneumoniae assessed as diameter of inhibition zone at 25 ug/well after 24 hrs by agar well diffusion method; details: read-out: DIZ
[15] = tested on: Klebsiella pneumoniae; test: Antibacterial activity against Klebsiella pneumoniae assessed as diameter of inhibition zone at 50 ug/well after 24 hrs by agar well diffusion method; details: read-out: DIZ
[16] = tested on: Klebsiella pneumoniae; test: Antibacterial activity against Klebsiella pneumoniae assessed as diameter of inhibition zone at 100 ug/well after 24 hrs by agar well diffusion method; details: read-out: DIZ
[17] = tested on: Aspergillus niger; test: Antifungal activity against Aspergillus niger assessed as diameter of inhibition zone at 12.5 ug/well after 48 hrs by agar well diffusion method; details: read-out: DIZ
[18] = tested on: Aspergillus niger; test: Antifungal activity against Aspergillus niger assessed as diameter of inhibition zone at 25 ug/well after 48 hrs by agar well diffusion method; details: read-out: DIZ
[19] = tested on: Aspergillus niger; test: Antifungal activity against Aspergillus niger assessed as diameter of inhibition zone at 50 ug/well after 48 hrs by agar well diffusion method; details: read-out: DIZ
[20] = tested on: Aspergillus niger; test: Antifungal activity against Aspergillus niger assessed as diameter of inhibition zone at 100 ug/well after 48 hrs by agar well diffusion method; details: read-out: DIZ
[21] = tested on: Penicillium chrysogenum; test: Antifungal activity against Penicillium chrysogenum assessed as diameter of inhibition zone at 12.5 ug/well after 48 hrs by agar well diffusion method; details: read-out: DIZ
[22] = tested on: Penicillium chrysogenum; test: Antifungal activity against Penicillium chrysogenum assessed as diameter of inhibition zone at 25 ug/well after 48 hrs by agar well diffusion method; details: read-out: DIZ
[23] = tested on: Penicillium chrysogenum; test: Antifungal activity against Penicillium chrysogenum assessed as diameter of inhibition zone at 50 ug/well after 48 hrs by agar well diffusion method; details: read-out: DIZ
[24] = tested on: Penicillium chrysogenum; test: Antifungal activity against Penicillium chrysogenum assessed as diameter of inhibition zone at 100 ug/well after 48 hrs by agar well diffusion method; details: read-out: DIZ
[25] = tested on: Staphylococcus aureus; test: Antibacterial activity against Staphylococcus aureus after 24 hrs by turbidity-based broth dilution assay
[26] = tested on: Pseudomonas aeruginosa; test: Antibacterial activity against Pseudomonas aeruginosa after 24 hrs by turbidity-based broth dilution assay
[27] = tested on: Klebsiella pneumoniae; test: Antibacterial activity against Klebsiella pneumoniae after 24 hrs by turbidity-based broth dilution assay
[28] = tested on: Aspergillus niger; test: Antifungal activity against Aspergillus niger after 48 hrs by turbidity-based broth dilution assay
[29] = tested on: Penicillium chrysogenum; test: Antifungal activity against Penicillium chrysogenum after 48 hrs by turbidity-based broth dilution assay
[30] = tested on: Staphylococcus aureus; test: Bactericidal activity against Staphylococcus aureus incubated for 24 hrs followed by regrowth on sterile nutrient broth for 24 hrs
[31] = tested on: Bacillus subtilis; test: Bactericidal activity against Bacillus subtilis incubated for 24 hrs followed by regrowth on sterile nutrient broth for 24 hrs; design: unit not given here
[32] = tested on: Pseudomonas aeruginosa; test: Bactericidal activity against Pseudomonas aeruginosa incubated for 24 hrs followed by regrowth on sterile nutrient broth for 24 hrs
[33] = tested on: Klebsiella pneumoniae; test: Bactericidal activity against Klebsiella pneumoniae incubated for 24 hrs followed by regrowth on sterile nutrient broth for 24 hrs
[34] = tested on: Aspergillus niger; test: Fungicidal activity against Aspergillus niger incubated for 48 hrs followed by regrowth on PDA plates for 48 hrs
[35] = tested on: Penicillium chrysogenum; test: Fungicidal activity against Penicillium chrysogenum incubated for 48 hrs followed by regrowth on PDA plates for 48 hrs
[36] = tested on: Aspergillus niger; test: Ratio of MFC to MIC for Aspergillus niger
[37] = tested on: Pseudomonas aeruginosa; test: Ratio of MBC to MIC for Pseudomonas aeruginosa

Structure (SMILES): Cc1cc(SCc2nnc(-c3ccc([N+](=O)[O-])cc3)n2N)nc(SCc2nnc(-c3ccc([N+](=O)[O-])cc3)n2N)n1
- zone of inhibition at 12.5 µg/disc [1]: 13 mm
- zone of inhibition at 25 µg/disc [2]: 15 mm
- zone of inhibition at 50 µg/disc [3]: 17 mm
- zone of inhibition at 100 µg/disc [4]: 19 mm
- zone of inhibition at 12.5 µg/disc [5]: 18 mm
- zone of inhibition at 25 µg/disc [6]: 20 mm
- zone of inhibition at 50 µg/disc [7]: 22 mm
- zone of inhibition at 100 µg/disc [8]: 26 mm
- zone of inhibition at 12.5 µg/disc [9]: 23 mm
- zone of inhibition at 25 µg/disc [10]: 26 mm
- zone of inhibition at 50 µg/disc [11]: 28 mm
- zone of inhibition at 100 µg/disc [12]: 31 mm
- zone of inhibition at 12.5 µg/disc [13]: 25 mm
- zone of inhibition at 25 µg/disc [14]: 27 mm
- zone of inhibition at 50 µg/disc [15]: 29 mm
- zone of inhibition at 100 µg/disc [16]: 32 mm
- zone of inhibition at 12.5 µg/disc [17]: 33 mm
- zone of inhibition at 25 µg/disc [18]: 35 mm
- zone of inhibition at 50 µg/disc [19]: 37 mm
- zone of inhibition at 100 µg/disc [20]: 40 mm
- zone of inhibition at 12.5 µg/disc [21]: 23 mm
- zone of inhibition at 25 µg/disc [22]: 25 mm
- zone of inhibition at 50 µg/disc [23]: 27 mm
- zone of inhibition at 100 µg/disc [24]: 31 mm
- MIC [25]: 100 µg
- MIC [26]: 12.5 µg
- MIC [27]: 25 µg
- MIC [28]: 6.25 µg
- MIC [29]: 25 µg
- MBC [30]: >200 µg
- MBC [31]: 200
- MBC [32]: 50 µg
- MBC [33]: 100 µg
- MFC [34]: 12.5 µg
- MFC [35]: 100 µg
- Ratio [36]: 2

Structure (SMILES): Cc1cc(SCc2nnc(-c3ccc(Cl)cc3)n2N)nc(SCc2nnc(-c3ccc(Cl)cc3)n2N)n1
- zone of inhibition at 12.5 µg/disc [1]: 10 mm
- zone of inhibition at 25 µg/disc [2]: 11 mm
- zone of inhibition at 50 µg/disc [3]: 13 mm
- zone of inhibition at 100 µg/disc [4]: 15 mm
- zone of inhibition at 12.5 µg/disc [5]: 16 mm
- zone of inhibition at 25 µg/disc [6]: 18 mm
- zone of inhibition at 50 µg/disc [7]: 20 mm
- zone of inhibition at 100 µg/disc [8]: 24 mm
- zone of inhibition at 12.5 µg/disc [9]: 18 mm
- zone of inhibition at 25 µg/disc [10]: 21 mm
- zone of inhibition at 50 µg/disc [11]: 24 mm
- zone of inhibition at 100 µg/disc [12]: 27 mm
- zone of inhibition at 12.5 µg/disc [13]: 22 mm
- zone of inhibition at 25 µg/disc [14]: 24 mm
- zone of inhibition at 50 µg/disc [15]: 26 mm
- zone of inhibition at 100 µg/disc [16]: 29 mm
- zone of inhibition at 12.5 µg/disc [17]: 32 mm
- zone of inhibition at 25 µg/disc [18]: 33 mm
- zone of inhibition at 50 µg/disc [19]: 35 mm
- zone of inhibition at 100 µg/disc [20]: 38 mm
- zone of inhibition at 12.5 µg/disc [21]: 21 mm
- zone of inhibition at 25 µg/disc [22]: 23 mm
- zone of inhibition at 50 µg/disc [23]: 25 mm
- zone of inhibition at 100 µg/disc [24]: 29 mm
- MIC [25]: 100 µg
- MIC [26]: 25 µg
- MIC [27]: 25 µg
- MIC [28]: 6.25 µg
- MIC [29]: 25 µg
- MBC [30]: >200 µg
- MBC [31]: 200
- MBC [32]: 100 µg
- MBC [33]: 100 µg
- MFC [34]: 12.5 µg
- MFC [35]: 100 µg
- Ratio [36]: 2

Structure (SMILES): Cc1cc(SCc2nnc(-c3ccc(Cl)cc3)s2)nc(SCc2nnc(-c3ccc(Cl)cc3)s2)n1
- zone of inhibition at 12.5 µg/disc [1]: 15 mm
- zone of inhibition at 25 µg/disc [2]: 17 mm
- zone of inhibition at 50 µg/disc [3]: 19 mm
- zone of inhibition at 100 µg/disc [4]: 21 mm
- zone of inhibition at 12.5 µg/disc [5]: 21 mm
- zone of inhibition at 25 µg/disc [6]: 23 mm
- zone of inhibition at 50 µg/disc [7]: 26 mm
- zone of inhibition at 100 µg/disc [8]: 29 mm
- zone of inhibition at 12.5 µg/disc [9]: 26 mm
- zone of inhibition at 25 µg/disc [10]: 29 mm
- zone of inhibition at 50 µg/disc [11]: 32 mm
- zone of inhibition at 100 µg/disc [12]: 34 mm
- zone of inhibition at 12.5 µg/disc [13]: 28 mm
- zone of inhibition at 25 µg/disc [14]: 30 mm
- zone of inhibition at 50 µg/disc [15]: 32 mm
- zone of inhibition at 100 µg/disc [16]: 35 mm
- zone of inhibition at 12.5 µg/disc [17]: 24 mm
- zone of inhibition at 25 µg/disc [18]: 26 mm
- zone of inhibition at 50 µg/disc [19]: 28 mm
- zone of inhibition at 100 µg/disc [20]: 31 mm
- zone of inhibition at 12.5 µg/disc [21]: 15 mm
- zone of inhibition at 25 µg/disc [22]: 17 mm
- zone of inhibition at 50 µg/disc [23]: 19 mm
- zone of inhibition at 100 µg/disc [24]: 22 mm
- MIC [25]: 50 µg
- MIC [26]: 6.25 µg
- MIC [27]: 12.5 µg
- MIC [28]: 12.5 µg
- MIC [29]: 50 µg
- MBC [30]: 200 µg
- MBC [31]: 100
- MBC [32]: 12.5 µg
- MBC [33]: 50 µg
- MFC [34]: 50 µg
- MFC [35]: 200 µg
- Ratio [37]: 2

Structure (SMILES): Cc1cc(SCc2nnc(-c3ccc([N+](=O)[O-])cc3)s2)nc(SCc2nnc(-c3ccc([N+](=O)[O-])cc3)s2)n1
- zone of inhibition at 12.5 µg/disc [1]: 16 mm
- zone of inhibition at 25 µg/disc [2]: 18 mm
- zone of inhibition at 50 µg/disc [3]: 20 mm
- zone of inhibition at 100 µg/disc [4]: 23 mm
- zone of inhibition at 12.5 µg/disc [5]: 22 mm
- zone of inhibition at 25 µg/disc [6]: 24 mm
- zone of inhibition at 50 µg/disc [7]: 27 mm
- zone of inhibition at 100 µg/disc [8]: 31 mm
- zone of inhibition at 12.5 µg/disc [9]: 28 mm
- zone of inhibition at 25 µg/disc [10]: 31 mm
- zone of inhibition at 50 µg/disc [11]: 33 mm
- zone of inhibition at 100 µg/disc [12]: 35 mm
- zone of inhibition at 12.5 µg/disc [13]: 31 mm
- zone of inhibition at 25 µg/disc [14]: 33 mm
- zone of inhibition at 50 µg/disc [15]: 35 mm
- zone of inhibition at 100 µg/disc [16]: 38 mm
- zone of inhibition at 12.5 µg/disc [17]: 27 mm
- zone of inhibition at 25 µg/disc [18]: 29 mm
- zone of inhibition at 50 µg/disc [19]: 32 mm
- zone of inhibition at 100 µg/disc [20]: 35 mm
- zone of inhibition at 12.5 µg/disc [21]: 20 mm
- zone of inhibition at 25 µg/disc [22]: 22 mm
- zone of inhibition at 50 µg/disc [23]: 24 mm
- zone of inhibition at 100 µg/disc [24]: 26 mm
- MIC [25]: 50 µg
- MIC [26]: 6.25 µg
- MIC [27]: 12.5 µg
- MIC [28]: 12.5 µg
- MIC [29]: 50 µg
- MBC [30]: 200 µg
- MBC [31]: 100
- MBC [32]: 12.5 µg
- MBC [33]: 50 µg
- MFC [34]: 50 µg
- MFC [35]: 200 µg
- Ratio [37]: 2
